Assay results from PMC5398486, “Cheminformatics-aided discovery of small-molecule Protein-Protein Interaction (PPI) dual inhibitors of Tumor Necrosis Factor (TNF) and Receptor Activator of NF-κB Ligand (RANKL)” (PLoS Computational Biology, 2017).
Like-named read-outs stand apart in the source and are kept apart here.

Assays:
BM viability (MTT assay) = assay type: cell-based; details: primary bone marrow cells, M-CSF 25 ng/mL, read-out: LC50 (RANKL complexes, BM viability)
Experimental: BMs were plated on 96-well plates at a density of 10^5 cells/well and treated with T8 and T23 at various concentrations, in the presence of M-CSF (25 ng/mL) for 48 hours. Cell viability was determined by the 3-(4,5-dimethylthiazol-2-yl)-2,5-diphenyltetrazolium bromide (MTT) colorimetric assay, which measures the ability of viable cells to reduce a soluble tetrazolium salt to an insoluble purple formazan precipitate.[63] After removal of the medium, each well was incubated with 0.5 mg/mL MTT (Sigma-Aldrich, St. Louis, MO) in serum-free α-MEM at 37°C for 3 h. At the end of the incubation period, the medium was removed and the intracellular formazan was solubilized with 200 μL DMSO and quantified by reading the absorbance at 550 nm on a microplate reader (Optimax; Molecular Devices, Sunnyvale, CA). Cell viability (%) was expressed as a percentage of the negative control treated without compounds. LC50 values were calculated as mean ± SEM from three independent experiments.

TNF [1] = target: T1, TNF (Homo sapiens, UniProt P01375); assay: Cross-linking experiments, TNF trimer formation; assay type: biochemical; design: purchased PeproTech; details: molar ratio of 4:1 relative to TNF, BS3 cross-linking
Experimental: 100 ng of recombinant human TNF or RANKL (Peprotech) were incubated with the inhibitors for 30 min at room temperature and then subjected to cross-linking, using 4.8 mM BS3 (ThermoFisher Scientific) for 30 min at room temperature. The reaction was stopped by adding 1/10th volume of 1 M Tris-HCl, pH 7.5. Samples were then subjected to SDS-PAGE and western blotting using an anti human-TNF or RANKL antibody (both R&D Systems).
Human TNF or RANKL was incubated with T8 or T23, chemically cross-linked, and subjected to SDS-PAGE. This was followed by western blotting to detect the various TNF and RANKL multimers. Both inhibitors were used at a molar ratio of 4:1 relative to TNF and 1:1 relative to RANKL. Numbers indicate molecular weights in kDa; NC = non cross-linked control (no inhibitor, no cross-linking); CC = cross-linked control (no inhibitor).

TNF [2] = target: T1, TNF; assay: TNF-induced death assay in L929 cells; assay type: cell-based; design: purchased PeproTech; details: 0.25 ng/mL human TNF + 2 μg/mL actinomycin D, approx. 24 h, read-out: L929 IC50 (inhibition of TNF-induced death)
Experimental: L929 cells were cultured on 96-well plates (3×10^4 cells/well) overnight. Then, 0.25 ng/mL human TNF (PeproTech) and 2 μg/mL actinomycin D (Sigma–Aldrich) were added. TNF with the compounds were pre-incubated for 30 min at room temperature before adding them to cells to assess inhibition. Background death was estimated using an actinomycin D treated-only control. After approximately 24 h, dead cells were cleared away by washing with PBS. The remaining live cells were then fixed with methanol and stained with crystal violet. After solubilization with acetic acid, staining was quantified spectrophotometrically at 570 nm. Cytotoxicity is expressed with respect to the background death control and also relative to the toxicity of compounds. Experiments were repeated three times.
Biological screening of the compounds examined their capacity to block TNF function in a modified TNF bioactivity assay.[91] The basis of this test is the death-inducing function of TNF in the murine fibrosarcoma cell line L929 following sensitization by the transcription inhibitor actinomycin D. Functional potency of the compounds would translate in a significant reduction of TNF-induced death. Using this approach, out of the nine shortlisted small molecules, two compounds (T8 and T23) were selected as follows. […]

TNF [3] = target: T1, TNF; assay: Fluorescence-based binding affinity assay, TNF; design: made in house; details: for 'n' value from Scatchard plot (ligand binding sites per protein molecule): TNF, binding assay raw data
Experimental: For use in the binding assays, recombinant TNF and RANKL were expressed and purified as previously described.[84–86] Fluorescence intensity was measure with a Synergy H1 Multi-Mode Reader (BioTek) in 96-well microplates (black) at 25°C. […] During preparation of the solutions the buffer was firstly added to all wells followed by the ligand solution and finally the protein was added. All solutions were mixed by pipetting and equilibrated for 1h at 25°C before measurement. […] Experiments were performed for TNF in 10 mM citrate-phosphate (pH 6.5) and for RANKL in 25 mM Tris–HCl buffer, 100 mM NaCl (pH 7.5); both buffers were supplemented with PEG3350 at the concentrations indicated in the respective figures. Kd values were calculated as mean ± SEM from three independent experiments.
Differences in fluorescence intensity between the protein/ligand complex and free protein (or free ligand) were analysed as previously described in [Papaneophytou et al. (2013) ACS Med Chem Lett. 4: 137-141] (Eq. S6) in order to determine the dissociation constant (Kd) of the various protein-ligand systems.
In Eq. (S6) Fobs is the observed fluorescence intensity; FBG is the fluorescence background signal; MFLF [picture] and PF are the molar fluorescence and concentration of free protein, respectively; FR is the fluorescence ratio of bound protein (or bound ligand in the case of a fluorescence ligand); LT and PT are the total concentrations of ligand and protein, respectively. A detailed analysis of the development of the fluorescence ligand-binding assay is given in [Papaneophytou et al. (2013) ACS Med Chem Lett. 4: 137-141].

human RANKL = target: T2, human RANKL (Homo sapiens, UniProt O14788); assay: RANKL-induced osteoclastogenesis / osteoclastic (TRAP) activity assay in bone marrow cells; assay type: cell-based; details: 50 ng/ml human RANKL + 25 ng/ml M-CSF, read-out: IC50 (RANKL complexes, TRAP activity)
T2 sequence (O14788 140-317 limits assumed): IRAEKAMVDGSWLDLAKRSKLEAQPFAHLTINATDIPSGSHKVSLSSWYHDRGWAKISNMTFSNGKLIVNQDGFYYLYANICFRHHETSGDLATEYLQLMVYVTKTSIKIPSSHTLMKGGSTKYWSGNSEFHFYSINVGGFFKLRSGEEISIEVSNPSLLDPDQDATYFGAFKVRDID
Experimental: To visualize osteoclasts, cell cultures were stained with TRAP (tartrate-resistant acid phosphatase), using an acid phosphatase leukocyte (TRAP) kit (Sigma-Aldrich). Osteoclasts were identified as TRAP-positive multinucleated cells containing more than three nuclei.
To measure osteoclast activity, bone marrow cells were cultured for four days as described above and lysed with 0.2% Triton X-100. TRAP activity was measured by the conversion of p-nitrophenyl phosphate to p-nitrophenol in the presence of sodium tartrate. Thus, cell lysates were incubated with 5.5 mM phosphatase substrate diluted in 100 mM citrate buffer and 10 mM sodium tartrate, for 40 minutes at 37°C. The reaction was stopped by addition of 0.4 N sodium hydroxide and absorbance was measured at 405 nm using a microplate reader (Molecular Devices). TRAP activity was normalized to total protein content as determined by the Bradford assay (Bio-Rad protein assay). TRAP activity per μg of total protein was expressed as a percentage of the positive control treated without compounds. IC50 values were calculated as mean ± SEM from three independent experiments performed in duplicate.

[4] = TNF 0.75 μM, PEG3350 2.5%, 10 mM Citrate-phosphate buffer pH 6.5, read-out: Binding affinity (Kd), TNF
[5] = TNF 0.75 μM, PEG3350 5%, 10 mM Citrate-phosphate buffer pH 6.5, read-out: Binding affinity (Kd), TNF
[6] = TNF 1.5 μM, PEG3350 5%, 10 mM Citrate-phosphate buffer pH 6.5, read-out: Binding affinity (Kd), TNF
[7] = TNF 2.5 μM, PEG3350 5%, 10 mM Citrate-phosphate buffer pH 6.5, read-out: Binding affinity (Kd), TNF
[8] = fluorescence assay, 25°C, citrate-phosphate buffer, 5% PEG3350, read-out: Kd (TNF complexes)

T1 sequence (P01375 77-233 limits assumed): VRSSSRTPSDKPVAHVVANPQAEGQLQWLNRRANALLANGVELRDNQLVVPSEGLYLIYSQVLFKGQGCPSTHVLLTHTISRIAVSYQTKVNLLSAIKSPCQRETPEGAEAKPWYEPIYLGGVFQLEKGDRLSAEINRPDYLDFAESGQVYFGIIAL

O=C(NNC(=NS(=O)(=O)c1ccc(-n2nc(C(F)(F)F)cc2-c2cccs2)cc1)N1CCCC1)c1ccc(Cl)cc1 [Compound T8, N-[(4-chlorobenzoyl)amino]-N'-[4-[5-thiophen-2-yl-3-(trifluoromethyl)pyrazol-1-yl]phenyl]sulfonylpyrrolidine-1-carboximidamide]
CC50 at 48 h (BM viability (MTT assay)): 42.6 ± 4.3 µM
formation of TNF trimers (cross-linking, western blot) (TNF [1]): obstruct the formation of active TNF and RANKL trimers
IC50 (TNF [2]): 40 ± 2.3 µM
Kd (TNF [3]; [4]): 9.55 ± 0.81 µM
Kd (TNF [3]; [5]): 8.78 ± 0.76 µM
Kd (TNF [3]; [6]): 9.02 ± 0.88 µM
Kd (TNF [3]; [7]): 9.17 ± 0.88 µM
'n' value from Scatchard plot (ligand binding sites per protein molecule) (TNF [3]): 1
Kd (TNF [3]; [8]): 8.8 ± 0.8 µM
IC50 (human RANKL): 9 ± 0.7 µM

COc1cc(OC(C)=O)c(-c2cc(OC(C)=O)c(OC)cc2OC(C)=O)cc1OC(C)=O [Compound T23, [4-acetyloxy-2-(2,5-diacetyloxy-4-methoxyphenyl)-5-methoxyphenyl] acetate]
CC50 at 48 h (BM viability (MTT assay)): 5.9 ± 0.3 µM
formation of TNF trimers (cross-linking, western blot) (TNF [1]): obstruct the formation of active TNF and RANKL trimers
IC50 (TNF [2]): 17 ± 1.2 µM
Kd (TNF [3]; TNF 0.75 μM, PEG3350 0%, 10 mM Citrate-phosphate buffer pH 6.5, read-out: Binding affinity (Kd), TNF): 2.53 ± 0.23 µM
Kd (TNF [3]; [4]): 3.02 ± 0.31 µM
Kd (TNF [3]; [5]): 2.8 ± 0.19 µM
Kd (TNF [3]; [6]): 2.63 ± 0.25 µM
Kd (TNF [3]; [7]): 2.98 ± 0.47 µM
'n' value from Scatchard plot (ligand binding sites per protein molecule) (TNF [3]): 1
Kd (TNF [3]; [8]): 2.8 ± 0.2 µM
IC50 (human RANKL): 2.6 ± 0.2 µM
